Patent US20070248646A1, “Use of azurocidin inhibitors in prevention and treatment of ocular vascular leakage” (priority 2006, published 2007)

How the values were obtained:
[1] = test system: VEGF-induced blood retinal barrier breakdown; experiment: VEGF-induced blood retinal barrier breakdown (Evans Blue); type: in vivo, Brown Norway rats; details: 24 hours after intravitreal 50 ng VEGF
Procedure: (§1) This study employed Brown Norway rats, AZ (1 μg, 10 μg, 20 μg), PBS, aprotinin, VEGF164, and polyclonal anti-AZ antibody (1 μg). Briefly, Brown Norway rats received intravitreal injections of AZ (1 μg, 10 μg and 20 μg) in one eye and PBS in the contralateral eye. BRB breakdown was quantified using the Evans Blue (EB) technique at 1 hour, 3 hours, and 24 hours after intravitreal injection of AZ or PBS. To assess whether AZ induced retinal leukostasis, firm leukocyte adhesion was quantified at 3 hours and 24 hours post AZ injection (10 μg) using the ex vivo conconavalin leukostasis assay. To block AZ, rats were treated with a single intravenous injection of aprotinin (30,000KIU), prior to the intravitreal injections. To investigate whether AZ was involved in VEGF-induced BRB breakdown, rats received intravitreal injections of 50 ng recombinant mouse VEGF164 in one eye and PBS in the other eye and were treated intravenously with aprotinin (50,000KIU every eight hours) or polyclonal anti-AZ antibody (1 μg). BRB breakdown and retinal leukostasis were quantified 24 hours after VEGF injection.
Rats received intravitreous injections of 5 μl of sterile phosphate-buffered saline (PBS) containing 50 ng VEGF164 (R&D Systems, Minneapolis, Minn.) in one eye and 5 μl of sterile phosphate-buffered saline (PBS) in the contralateral eye. The retinas were analyzed for leakage 24 hours after VEGF injection.
In a second group, the rats were additionally treated intravenously with aprotinin (Trasylol®, Bayer Pharmaceuticals). 50,000KIU of aprotinin (5 ml of Trasylol®) was administered intravenously through the tail vein 1 hour before, as well as 8 hours and 16 hours after, the intravitreal injection of VEGF. The retinas were analyzed 24 hours after VEGF administration.
In a third group, rats were treated with intravitreous injections of 1 μg of goat anti-human azurocidin polyclonal antibody (5 μl of a 200 μg/ml antibody solution, Santa Cruz biotechnology) or control goat isotype IgG (R&D system) in the VEGF injected eye 6 hours after VEGF administration.
Retinal vascular permeability was quantified as previously described (Qaum et al. (2002) supra, Xu et al. (2001) INVEST. OPHTHALMOL. VIS. SCI. 42; 789-94). After the animals were deeply anesthetized, Evans blue dye (Sigma) dissolved in normal saline (30 mg/ml) was injected through the tail vein over 10 seconds at a dosage of 45 mg/kg. Blood samples were obtained from the left ventricle, just before perfusion at 2 hours, to obtain the time-average Evans blue dye plasma concentration. These blood samples were centrifuged at 12,000 rpm for 15 minutes and diluted to 1/10,000th of their initial concentration in formamide (Sigma). The background-subtracted absorbance was determined by measuring each sample at 620 nm (the absorbance maximum for Evans blue dye in formamide) and 740 nm (the absorbance minimum) with a spectrophotometer. The concentration of dye in the plasma was calculated from a standard curve of Evans blue dye in formamide. After the dye had circulated for 2 hours, the chest cavity was opened, and the rats were perfused through the left ventricle with 1% paraformaldehyde in citrate buffer (0.05 M, pH 3.5) at a physiological pressure of 120 mm Hg. The retinas were then carefully dissected under an operating microscope. After measurement of the retinal weight, Evans blue dye was extracted by incubating each retina in 0.180 ml of formamide for 18 hours at 70° C. The extract was ultracentrifuged at a speed of 14,000 rpm for 60 minutes at 25° C. Sixty microliters of the supernatant was used for spectrophotometric measurement at 620 nm and 740 nm. The background-subtracted absorbance was determined by measuring each sample at 620 nm (the absorbance maximum for Evans blue dye in formamide) and 740 nm (the absorbance minimum). The concentration of dye in the extracts was calculated from a standard curve of Evans blue dye in formamide. […]

[2] = test system: retinal vascular permeability; experiment: Qualitative evaluation of retinal vascular permeability with 20-kDa FITC conjugated dextran; type: in vivo, Brown Norway rats; details: flat-mount retinas, VEGF-injected eyes with or without aprotinin
Procedure: Retinal vascular permeability was documented in a histological manner by intravenous injection of 20-kDa FITC conjugated dextran (50 mg/Kg, Sigma Aldrich). Rats were sacrificed 30 minutes later with intracardiac perfusion of 4% paraformaldehyde to fix the dextran conjugate in the tissues. The retinas were carefully dissected and flat mounted in anti-fading medium (Vector Laboratories). Flat-mount retinas were examined by fluorescent microscopy. Digital color enhancement (green) was equally applied to all images for improved visualization of fluorescence.

[3] = test system: VEGF-induced retinal leukostasis; experiment: Concanavalin A ex vivo retinal leukostasis quantification, VEGF-induced; type: in vivo, Brown Norway rats
Procedure: as §1
Deep anesthesia was induced with xylazine and ketamine as above. The chest cavity was carefully opened and the left ventricle was entered with a 14-gauge perfusion cannula fixed to a vessel clamp; care was taken to avoid ventricular obstruction. The right atrium was opened with a 12-gauge needle to achieve outflow. With the heart providing the motive force, 250 ml/kg PBS (roughly 30 ml of PBS quickly) was perfused to clear erythrocytes and non-sticking leukocytes, followed by perfusion with FITC-coupled Concanavalin A lectin (20 μg/ml in PBS, pH 7.4, total concentration 5 mg/kg) (Vector Labs, Burlingame, Calif.). The latter stained adherent leukocytes and the vascular endothelium. Lectin staining was followed by PBS perfusion (30 ml quickly).
The retinas were flat-mounted in a water-based fluorescence-anti-fading medium (Southern Biotechnology, Birmingham, Ala.) and imaged via fluorescence microscopy (Leica upright microscope, Hamamatsu digital high sensitivity camera, openlab imaging software). The total number of adherent leukocytes per retina was counted in a masked fashion.

[4] = test system: murine brain microvascular endothelial cells (bEND3); experiment: Transendothelial electrical resistance (TEER), in vitro model of the BBB; type: cell-based; details: AZ 25 μg/ml, VEGF 100 ng/ml
Procedure: The purpose of this experiment was to investigate the direct effects of VEGF and/or AZ on the BBB. This study used an in vitro model of the BBB in which transendothelial electrical resistance (TEER) in barrier-privileged murine brain microvascular endothelial cells (bEND3) was measured. The results provide support that the direct effects of VEGF and AZ on the endothelium of the BBB, although related, may be distinct.
Murine brain microvascular endothelial cells (bEND3) were grown on 0.4 μm fibronectin-coated inserts in 24-well plates (BD Bioscience, San Jose, Calif.). After the cells reached confluency, the cells were stimulated with AZ (AZ, 25 μg/ml), VEGF (100 ng/ml) or both. Electrical resistance was measured at the indicated time-points after the treatment by using a volt-ohmmeter (EVOM, World Precision Instruments, Sarasota, Fla.) with the electrode reproducibly positioned in each well. Transendothelial electrical resistance (TEER) values for each Transwell were calculated by subtracting the electrical resistance of the blank wells (coated filters without cells) prepared and treated as the experimental samples. All experiments were carried out in quadruplicate. The results were expressed as Mean±SEM from n=4 independent experiments.

isolated leukocytes = details: VEGF 5-500 ng/ml, 20 minutes
Procedure: Additionally, in vitro it is investigated whether VEGF can cause the release of AZ from isolated leukocytes. The supernatant of VEGF-treated leukocytes is used to detect AZ using a Western Blot. Briefly, 10-20 ml of human blood is obtained by phlebotomy from healthy volunteers of both genders and all age groups. Leukocyte subtypes (i.e., neutrophils) are isolated using a percoll gradient technique. Then, 1-2×10^6 leukocytes are incubated for 20 minutes at room temperature with different concentrations (5-500 ng/ml) of human VEGF isoforms (121, 165, and 189) in a total volume of 200-300 μl of 1% FBS-containing PBS. Samples are then centrifuged at 1,500 rpm for 10 minutes, and 150-200 μl of the supernatant is collected for AZ-detection using the Western Blot technique with a commercially available antibody against human AZ (R&D systems).

[5] = test system: retinal vascular permeability (blood retina barrier); experiment: Evans Blue BRB breakdown after intravitreal azurocidin; type: in vivo, Brown Norway rats; details: intravitreal 20 μg
Procedure: as §1
Rats received intravitreous injections of 5 μl of sterile phosphate-buffered saline (PBS) containing 20 μg human neutrophil azurocidin (Athens Research and Biotechology, Atlanta, Ga.) in one eye and 5 μl of sterile phosphate-buffered saline (PBS) in the contralateral eye. The retinas were analyzed 45 minutes, 3 hours, and 24 hours after azurocidin injection.
Retinal vascular permeability was quantified as previously described (Qaum et al. (2002) supra, Xu et al. (2001) INVEST. OPHTHALMOL. VIS. SCI. 42; 789-94). After the animals were deeply anesthetized, Evans blue dye (Sigma) dissolved in normal saline (30 mg/ml) was injected through the tail vein over 10 seconds at a dosage of 45 mg/kg. Blood samples were obtained from the left ventricle, just before perfusion at 2 hours, to obtain the time-average Evans blue dye plasma concentration. These blood samples were centrifuged at 12,000 rpm for 15 minutes and diluted to 1/10,000th of their initial concentration in formamide (Sigma). The background-subtracted absorbance was determined by measuring each sample at 620 nm (the absorbance maximum for Evans blue dye in formamide) and 740 nm (the absorbance minimum) with a spectrophotometer. The concentration of dye in the plasma was calculated from a standard curve of Evans blue dye in formamide. After the dye had circulated for 2 hours, the chest cavity was opened, and the rats were perfused through the left ventricle with 1% paraformaldehyde in citrate buffer (0.05 M, pH 3.5) at a physiological pressure of 120 mm Hg. The retinas were then carefully dissected under an operating microscope. After measurement of the retinal weight, Evans blue dye was extracted by incubating each retina in 0.180 ml of formamide for 18 hours at 70° C. The extract was ultracentrifuged at a speed of 14,000 rpm for 60 minutes at 25° C. Sixty microliters of the supernatant was used for spectrophotometric measurement at 620 nm and 740 nm. The background-subtracted absorbance was determined by measuring each sample at 620 nm (the absorbance maximum for Evans blue dye in formamide) and 740 nm (the absorbance minimum). The concentration of dye in the extracts was calculated from a standard curve of Evans blue dye in formamide. Blood-retinal barrier breakdown was calculated as previously described (Qaum et al (2002) supra, Xu et al. (2001) supra). Briefly, as mentioned, the optical density of the formamide containing tissue-extracted Evans Blue dye and that of the animals' plasma were measured at two different wavelengths (620 and 740 nm). The values were then inserted into the following equation. [formula] Results were expressed as a percentage of the value in control eyes. As used through each of Examples 1 -12, the units for results from the EB technique are μl plasma/g retina/h. Ex Vivo Quantification of Retinal Leukostasis

Molecule | BRB breakdown as percentage of the value in control eyes [1] | Evans Blue retinal leakage in VEGF-injected eye ([1]; PBS eye 9.6±1.4 (VEGF alone), 5.4±1.4 (with aprotinin)) | fold increase in retinal vascular leakage compared to the PBS injected eye ([1]; aprotinin i.v. 50,000KIU every eight hours, antibody 1 μg intravitreal 6 hours after VEGF) | retinal distribution of intravenously injected 20 kDa FITC-conjugated dextran [2] | leukocyte adhesion as a percentage of leukocyte adhesion in the contralateral PBS-injected eye ([3]; 24 hours after 50 ng VEGF, aprotinin 50,000 KIU i.v. 1 hour before, 8 and 16 hours after) | fold increase in total number of leukocytes adherent to the retina vessels compared to PBS-injected eyes ([3]; intravitreal 50 ng VEGF, 24 hours post injection) | TEER after 6 hours until 24 hours after treatment [4] | TEER up to 6 hours after treatment [4] | TEER, first 30 minutes after incubation [4] | anticipated release of AZ from leukocytes (isolated leukocytes) | time course of increase in retinal vascular permeability [5] | Evans Blue retinal leakage ([5]; 3 to 5 hours post injection, PBS eye 8.3±1.4) | fold increase in Evans Blue retinal leakage compared to control eyes ([5]; 3 to 5 hours post injection, n=11) | Evans Blue retinal leakage ([5]; 24 hours post-injection, PBS eye 8.7±1.8) | fold increase in Evans Blue retinal leakage compared to control eyes ([5]; 24 hours post-injection, n=6) | fold increase in Evans Blue retinal leakage compared to control eyes ([5]; approximately one to three hours after injection, n=8) | Evans Blue retinal leakage ([5]; one to three hours after injection, PBS eye 5.8±1.4)
VEGF | 320%±74 | 29.7±7.5 μl plasma/g retina/h | 3.2±0.74 fold | fluorescence diffusely distributed throughout the retinal tissues at both intraluminal and extravascular locations | 308% | 3 fold | showed no sign of recovery in the TEER values | remained at the reduced levels until 6 hours after treatment | rapid and significant drop of resistance | induces the release of AZ from leukocytes |  |  |  |  |  |  | 
azurocidin (protein, UniProt P20160 27-248, looked up, human neutrophil azurocidin) Azurocidin: IVGGRKARPRQFPFLASIQNQGRHFCGGALIHARFVMTAASCFQSQNPGVSTVVLGAYDLRRRERQSRQTFSISSMSENGYDPQQNLNDLMLLQLDREANLTSSVTILPLPLQNATVEAGTRCQVAGWGSQRSGGRLSRFPRFVNVTVTPEDQCRPNNVCTGVLTRRGGICNGDGGTPLVCEGLAHGVASFSLGPCGRGPDFFTRVALFRDWIDGVLNNPGP |  |  |  |  |  |  | started to recover to normal levels and reached higher values than untreated control | remained at the reduced levels until 6 hours after treatment | rapid and significant drop of resistance |  | with a peak one to three hours post administration | 21±2.3 μl plasma/g retina/h | 2.7 fold | 16.5±2.8 μl plasma/g retina/h | 1.7 fold | 7.7 fold | 45±17 μl plasma/g retina/h
